Laboratory results taken from patent publication US10233209B2, “Inhibitors of the farnesoid x receptor and uses in medicine” (The United States of America, as represented by the …, priority 2013, dated 2019).

Target: T1, human FXR (Homo sapiens, UniProt Q96RI1)
T1 construct: expressed in transfected cells; host or cells: HEK293T
T1 sequence (Q96RI1 262-486 limits assumed): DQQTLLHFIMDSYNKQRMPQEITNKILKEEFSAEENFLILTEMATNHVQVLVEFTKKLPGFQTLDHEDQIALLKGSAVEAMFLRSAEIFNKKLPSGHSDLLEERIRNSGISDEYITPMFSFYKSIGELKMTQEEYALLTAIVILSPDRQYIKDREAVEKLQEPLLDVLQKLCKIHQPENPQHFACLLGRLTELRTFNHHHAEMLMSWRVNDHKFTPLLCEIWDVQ
Assay: human FXR competition assay (GAL4-FXR chimeric receptor luciferase, HEK293T)
Format: cell-based
Settings: in the presence of GW4064
Procedure: Luciferase detection was conducted using the Dual Luciferase Reporter Assay kit (Promega Corp., Madison, Wis.) and a Tecan GeniosPro luminescent plate reader (Research Triangle Park, N.C.).
Luciferase detection was conducted using the Dual Luciferase Reporter Assay kit (Promega; Madison, Wis.) and a Tecan GeniosPro™ luminescent plate reader (Research Triangle Park, N.C.).

FXR activity induced by synthetic agonist GW4064 (luciferase, normalized to Renilla) | SMILES
inhibited FXR | C[C@H](CCC(=O)NCCS(=O)(=O)O)[C@H]1CC[C@H]2[C@@H]3[C@@H](O)[C@H](O)[C@@H]4C[C@H](O)CC[C@]4(C)[C@H]3CC[C@]12C [TWMCA]
inhibited FXR | C[C@H](CCC(=O)NCCS(=O)(=O)O)[C@H]1CC[C@H]2[C@@H]3[C@H](O)[C@@H](O)[C@@H]4C[C@H](O)CC[C@]4(C)[C@H]3CC[C@]12C [TαMCA]
